In assay [1] the target is T1, WT GTPγS KRAS (aa1-185) (Homo sapiens, UniProt P01116).
T1 construct: wild-type (WT) KRASGDP (aa1-185); made in house
In words: SPR binding (Biacore), GTPγS-loaded WT KRAS. The note with it: for Kd: 10° C., geometric mean when n>1, read-out: KRasGTPgS SPR KD; for KRasGTPgS SPR t1/2: dissociative half-life, t1/2=0.693/koff. The source says: (§1) No additional regeneration was used.
(§2) Compound dissociation was monitored for at least 3600 seconds. […] No additional regeneration was used.
Background: Surface plasmon resonance follows binding to a sensor surface in real time, without labels.

The target in assay [2] is T2, G12D GTPγS KRAS (aa1-185) (Homo sapiens, UniProt P01116, G12D).
T2 construct: G12DGDP KRAS (aa1-185); made in house
In words: SPR binding (Biacore), GTPγS-loaded KRAS G12D. Particulars: for Kd: 10° C., geometric mean when n>1, read-out: KRasGTPgS G12D SPR KD; for KRasGTPgS G12D SPR t1/2: dissociative half-life, t1/2=0.693/koff.
Text: as §1, §2

The target of assay [3] is T3, G12C GTPγS KRAS (aa2-184) (Homo sapiens, UniProt P01116, G12C).
T3 construct: G12CGDP KRAS (aa2-184); made in house
Put plainly: SPR binding (Biacore), GTPγS-loaded KRAS G12C. Particulars: for Kd: 10° C., geometric mean when n>1, read-out: KRasGTPgS G12C SPR KD; for KRasGTPgS G12C SPR t1/2: dissociative half-life, t1/2=0.693/koff.
Text: as §1, §2

In assay [4] the target is T4, G12V GTPγS KRAS (aa2-184) (Homo sapiens, UniProt P01116, G12V).
T4 construct: G12VGDP KRAS (aa2-184); made in house
In words: SPR binding (Biacore), GTPγS-loaded KRAS G12V. Particulars: for Kd: 10° C., geometric mean when n>1, read-out: KRasGTPgS G12V SPR KD; for KRasGTPgS G12V SPR t1/2: dissociative half-life, t1/2=0.693/koff.
Text: as §1, §2

Assay [5] concerns PANC08.13 (pancreatic cancer cell line). Put plainly: KRAS Cell Titer Glo (CTG) viability assay, Panc08.13. The note with it: Homo sapiens, PANC-08-13, 168 h, Panc08.13, 7-day; geometric mean when n>1. The assay is classed as cell-based. From the text:
(§3) The CellTiter-Glo® (CTG) Luminescent Cell Viability Assay is a homogeneous method of determining the number of viable cells in culture based on quantitation of the ATP present, an indicator of metabolically active cells. The CTG is designed for use with multi-well formats, making it ideal for automated high-throughput screening (HTS), cell proliferation and cytotoxicity assays. The homogeneous assay procedure involves adding the single reagent (CellTiter-Glo® Reagent) directly to cells cultured in serum-supplemented medium. Cell washing, removal of medium and multiple pipetting steps are not required. The system detects as few as 15 cells per well in a 384-well format in 10 minutes after adding reagent and mixing.
(§4) Cells are grown in humidified 5% CO2 incubator at 37° C. using the culture conditions outlined below. All cell culture media reagents were purchased from Gibco. Cell lines purchased from ATCC: H358 (non-small cell lung cancer cell line), SW620 (colorectal cancer cell line), PANC08.13 (RPM11640+10% FBS+10 units/ml Insulin, pancreatic cancer cell line). Test and control compounds are dispensed as nanoliter drops according to desired final concentrations in 0.1% DMSO using Echo Acoustic Dispenser onto 384 assay plates (Corning, Cat #3764) prior to cell seeding. Cells were seeded in 40 μL volume per well at the following cell densities (cells per well): H358 (300), SW620 (750), PANC 08.13 (600). Cells are incubated in the presence of compound for 7-days. Viability is determined on Day 7 using CellTiter-Glo® (CTG) Luminescent Cell Viability Assay (Promega). CTG is added to a final volume of 20 μl per well and incubated at room temperature for 15 minutes before luminescence is captured using an EnVision Reader with LUM384 US protocol. Data is analyzed using Activity Base to determine compound response and will be represented either as a percent effect (PCTEFF) or percent control (PCTOCTL) as described: Zero percent effect control (ZPE) (Negative control)—100% DMSO. Hundred percent effect (HPE) (Positive control)—1 μM Trametinib (GSK1120212, MEK inhibitor) (4 nl of 10 mM and 36 nl of DMSO per well). The following equations/nomenclature are used (% Effect; PCTEFF) and (% of Control; PCTOCTL): PCTEFF: 100*(Raw_Data_Value−HPE/ZPE−HPE), PCTOCTL: 100*Raw_Data_Value/User_Defined_Array), where the User_Defined_Array is either summarized HPE or ZPE.

Assay [6] relates to H358 (non-small cell lung cancer cell line). In words: KRAS Cell Titer Glo (CTG) viability assay, H358. The note with it: Homo sapiens, NCI-H358, 168 h, H358, 7-day; geometric mean when n>1. The assay is classed as cell-based.
Text: as §3, §4
In general terms: In ATP-based viability assays light output follows the ATP content of the culture.

Assay [7] has as its system SW620 (colorectal cancer cell line). Put plainly: KRAS Cell Titer Glo (CTG) viability assay, SW620. The assay is classed as cell-based. The note with it: Homo sapiens, SW-620, 168 h, SW620, 7-day; geometric mean when n>1.
Text: as §3, §4

Assay [8] relates to KRAS G12C, KRAS G12D, and KRAS G12V receptors. In words: SPR binding, summary statement for KRAS mutants. Particulars: alkylidenyl and/or haloalkylidenyl on R^1; statement in words.
Text: as §1, §2

Assay [9] has as its system pancreatic cancer, non-small cell lung cancer, and colorectal cancer. Put plainly: CTG assay, summary statement for cancer cell lines. The assay is classed as cell-based. Particulars: alkylidenyl and/or haloalkylidenyl on R^1; statement in words.
Text: as §3
Cells are grown in humidified 5% CO2 incubator at 37° C. using the culture conditions outlined below. All cell culture media reagents were purchased from Gibco. […] Viability is determined on Day 7 using CellTiter-Glo® (CTG) Luminescent Cell Viability Assay (Promega). CTG is added to a final volume of 20 μl per well and incubated at room temperature for 15 minutes before luminescence is captured using an EnVision Reader with LUM384 US protocol. Data is analyzed using Activity Base to determine compound response and will be represented either as a percent effect (PCTEFF) or percent control (PCTOCTL) as described: Zero percent effect control (ZPE) (Negative control)—100% DMSO. […]

Assay [10] has as its target T5, wild-type (WT) KRAS GDP (aa1-185) (Homo sapiens, UniProt P01116).
T5 construct: wild-type (WT) KRASGDP (aa1-185); made in house
Put plainly: SPR binding (Biacore), GDP-loaded WT KRAS. The note with it: 10° C., geometric mean when n>1.
Text: as §1, §2

Assay [11] addresses G12D GDP KRAS (aa1-185) (Homo sapiens, UniProt P01116, G12D). In words: biochemical.
Experimental: (§5) The binding affinity and kinetics were measured by Surface Plasmon Resonance (SPR) using Biacore 8K or 8K+ (Cytiva, Marlborough, MA) instruments. Recombinant, C-terminal site-specific biotinylated, wild-type (WT) KRASGDP (aa1-185), G12DGDP KRAS (aa1-185), G12CGDP KRAS (aa2-184), G12VGDP KRAS (aa2-184), WT HRASGDP (aa2-184) and WT NRASGDP (aa2-185) proteins were purified in presence of 1 μM GDP. The GDP-loaded KRAS proteins then went through nucleotide exchange with GTPγS (a non-hydrolysable analog of GTP) in the presence of alkaline phosphatase beads to obtain WTGTPγS KRAS (aa1-185), G12DGTPγS KRAS (aa1-185), G12CGTPγS KRAS (aa2-184), G12VGTPγS KRAS (aa2-184), WT HRASGTPγS (aa2-184) and WT NRASGTPγS (aa2-185). Binding measurements were performed parallelly in sets of either WT/G12D/G12C/G12V KRAS or WT K/H/N RAS proteins in GDP- and/or GTPγS-loaded forms, respectively.
(§6) Biacore instrument was desorbed and docked with a Series S Sensor Chip SA. […] Compound binding kinetics were measured in either multi-cycle or single-cycle kinetic format.
(§7) A 2-fold, 10-point serial dilution of test compounds was set-up in a 96-well microplate (Greiner; Cat #650101) with a top concentration of either 10 μM or 100 μM. Binding kinetics was measured at 10° C. by injecting serial dilution of compounds onto both reference and RAS immobilized channels at a flow rate of 100 μL/min and association time of 90 seconds. Compound dissociation was monitored for at least 400 seconds during each cycle. […]
(§8) A 3-fold, 6-point serial dilution of compounds was set-up in a deep 96-well microplate (Greiner Bio; Cat #780201) with the highest concentration of 1 μM (concentration range: 0.004-1 μM). Binding kinetics was measured at 10° C. by injecting serial dilutions of compounds in increasing order onto reference as well as RAS immobilized channels at a flow rate of 100 μL/min and association time of 120 seconds. Compound dissociation was monitored for at least 3600 seconds. […]
(§9) Both MCK and SCK data were processed and analyzed using Biacore Insight evaluation software (Cytiva, Marlborough, MA)). […]
For assay [12], the target named is G12C GDP KRAS (aa2-184) (Homo sapiens, UniProt P01116, G12C). In words: biochemical.
Experimental: as §5, §6, §7, §8, §9
Assay [13] deals with G12V GDP KRAS (aa2-184) (Homo sapiens, UniProt P01116, G12V). Put plainly: biochemical.
Experimental: as §5, §6, §7, §8, §9

A word on the Kd: it is the concentration at which binding is half-saturated. Usually IC50 stands for the midpoint of a concentration-inhibition curve. A higher IC50 goes with a need for much substance. On to `C#Cc1c(F)ccc2cc(O)cc(-c3nc4c5c(nc(OC[C@@]67CCCN6C/C(=C/F)C7)nc5c3F)N3CCCOC[C@H]3CO4)c12` [Example 34, 5-ethynyl-6-fluoro-4-[(8aS)-4-fluoro-2-{[(2E,7aS)-2-(fluoromethylidene)tetrahydro-1H-pyrrolizin-7a(5H)-yl]methoxy}-8a,9,12,13-tetrahydro-8H,11H-7,10-dioxa-1,3,6,13a-tetraazanaphtho[1,8-ab]heptalen-5-yl]naphthalen-2-ol], for which the Kd in assay [1] is less than 0.0106 nM; in assay [2], less than 0.0061 nM; in [3], less than 0.0145 nM; in assay [4], less than 0.0097 nM. Besides, the “KRasGTPgS SPR t1/2” value in assay [1] was greater than 192.7 h. Also, in [2], the “KRasGTPgS G12D SPR t1/2” value was greater than 192.7 h. The “KRasGTPgS G12C SPR t1/2” value in assay [3] is listed as greater than 192.7 h. The “KRasGTPgS G12V SPR t1/2” value in assay [4] is reported as greater than 192.7 h. Also, the half-maximal inhibitory concentration (IC50) in [5] is less than 0.5 nM; in assay [6] it was 1.2 nM; in [7], 2.3 nM. For the same compound, in assay [8], the binding affinities result is on record as “may enhance”. The “cellular activities against certain tumors” value in assay [9] is on record as “may enhance”.

Turning to `C#Cc1c(F)ccc2cc(O)cc(-c3nc4c5c(nc(OC[C@@]67CCCN6CC(=C)C7)nc5c3F)N(CC)CCO4)c12` [Example 37, 4-(10-ethyl-4-fluoro-2-{[(7aS)-2-methylidenetetrahydro-1H-pyrrolizin-7a(5H)-yl]methoxy}-9,10-dihydro-8H-7-oxa-1,3,6,10-tetraazacyclohepta[1,2,3-de]naphthalen-5-yl)-5-ethynyl-6-fluoronaphthalen-2-ol], the Kd amounted to 0.015 nM in assay [10]; 3.5 nM in assay [1]; 1.27 nM in assay [2]; 3.02 nM in assay [3]; 2.07 nM in [4]; 0.018 nM in assay [11]. Also, the Kd in assay [12] is 0.01 nM; in assay [13] it was 0.056 nM. Further, the “KRasGTPgS SPR t1/2” value in assay [1] is listed as 0.3 h. Moreover, in assay [2], the “KRasGTPgS G12D SPR t1/2” value amounted to 0.4 h. Also, the “KRasGTPgS G12C SPR t1/2” value in [3] is given as 0.4 h. Moreover, the “KRasGTPgS G12V SPR t1/2” value in assay [4] worked out at 0.4 h. For the same compound, the figures for the IC50 in assay [5], in assay [6] and in assay [7] were 18.3 nM, 40.5 nM and 138 nM, respectively.

As to `C=C1CN2CCC[C@@]2(COc2nc3c4c(nc(-c5cc(O)cc6ccc(F)c(CC)c56)c(F)c4n2)OC[C@@H]2COCCCN32)C1` [Example 35, 5-ethyl-6-fluoro-4-[(8aS)-4-fluoro-2-{[(7aS)-2-methylidenetetrahydro-1H-pyrrolizin-7a(5H)-yl]methoxy}-8a, 9,12,13-tetrahydro-8H,11H-7,10-dioxa-1,3,6,13a-tetraazanaphtho[1,8-ab]heptalen-5-yl]naphthalen-2-ol], the Kd in assay [10] was determined as 0.007 nM; in assay [1], 0.184 nM; in assay [2], 0.092 nM; in assay [3] it was 0.181 nM; in assay [4], 0.209 nM; in assay [11], 0.011 nM. Besides, the equilibrium dissociation constant (Kd) in assay [12] was 0.009 nM; in assay [13], 0.048 nM. In addition, the “KRasGTPgS SPR t1/2” value in [1] was found to be 12.4 h. For the same compound, in [2], the “KRasGTPgS G12D SPR t1/2” value was 11.3 h. In addition, in [3], the “KRasGTPgS G12C SPR t1/2” value is recorded as 17.8 h. For the same compound, the “KRasGTPgS G12V SPR t1/2” value in assay [4] amounted to 10.3 h. Also, the IC50 in assay [5] is less than 0.7 nM; in assay [6] it was 2.3 nM; in assay [7], 3.8 nM.
